{
  "source": "paper PMC3954439",
  "about": "(Molecular cancer therapeutics, 2014)",
  "molecular_target": "T1, ABCC10 (MRP7) (Homo sapiens, UniProt Q5T3U5)",
  "T1 sequence (Q5T3U5 1-1492)": "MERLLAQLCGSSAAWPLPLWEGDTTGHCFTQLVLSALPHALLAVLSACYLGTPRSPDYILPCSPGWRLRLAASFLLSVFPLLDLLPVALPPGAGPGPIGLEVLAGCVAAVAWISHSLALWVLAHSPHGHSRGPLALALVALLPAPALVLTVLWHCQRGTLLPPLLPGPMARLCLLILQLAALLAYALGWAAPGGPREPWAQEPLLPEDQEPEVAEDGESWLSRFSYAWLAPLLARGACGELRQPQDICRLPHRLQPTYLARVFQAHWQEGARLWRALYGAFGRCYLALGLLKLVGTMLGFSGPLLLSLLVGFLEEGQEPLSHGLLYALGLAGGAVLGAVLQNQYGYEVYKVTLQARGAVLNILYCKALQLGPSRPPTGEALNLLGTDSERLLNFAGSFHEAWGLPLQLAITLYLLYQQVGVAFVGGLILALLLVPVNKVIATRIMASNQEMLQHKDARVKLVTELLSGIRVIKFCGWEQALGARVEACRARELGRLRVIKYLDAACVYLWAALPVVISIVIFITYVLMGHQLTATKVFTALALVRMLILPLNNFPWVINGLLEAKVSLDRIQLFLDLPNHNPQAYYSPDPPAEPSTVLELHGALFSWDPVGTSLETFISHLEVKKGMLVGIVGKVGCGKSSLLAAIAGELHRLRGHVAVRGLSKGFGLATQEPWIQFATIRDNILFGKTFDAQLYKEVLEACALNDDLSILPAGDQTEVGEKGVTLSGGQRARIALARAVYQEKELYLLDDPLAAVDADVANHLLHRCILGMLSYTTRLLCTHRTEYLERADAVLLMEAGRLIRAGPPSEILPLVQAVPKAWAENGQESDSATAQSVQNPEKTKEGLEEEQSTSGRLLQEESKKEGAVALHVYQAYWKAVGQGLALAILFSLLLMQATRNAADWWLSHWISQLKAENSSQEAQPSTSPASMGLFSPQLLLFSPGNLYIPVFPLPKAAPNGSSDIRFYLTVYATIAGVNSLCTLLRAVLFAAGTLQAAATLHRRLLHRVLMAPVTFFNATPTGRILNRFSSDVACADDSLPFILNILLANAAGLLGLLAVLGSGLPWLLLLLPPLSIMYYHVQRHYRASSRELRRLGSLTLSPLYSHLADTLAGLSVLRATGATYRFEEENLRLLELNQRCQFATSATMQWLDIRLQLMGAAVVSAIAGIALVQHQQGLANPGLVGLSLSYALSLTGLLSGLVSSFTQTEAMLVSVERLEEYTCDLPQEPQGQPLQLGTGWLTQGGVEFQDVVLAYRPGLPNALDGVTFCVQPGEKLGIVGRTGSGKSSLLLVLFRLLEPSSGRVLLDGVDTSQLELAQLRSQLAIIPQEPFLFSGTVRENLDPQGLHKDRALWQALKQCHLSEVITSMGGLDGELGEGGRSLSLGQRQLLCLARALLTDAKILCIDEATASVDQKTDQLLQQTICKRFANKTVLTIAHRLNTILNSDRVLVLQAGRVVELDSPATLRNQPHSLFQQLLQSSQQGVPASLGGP",
  "experiment": "[3H]-paclitaxel efflux, HEK293/ABCC10 vs HEK293/pcDNA3.[…] cells",
  "format": "cell-based",
  "settings": "labelled compound; 0.01 uM; 37 C; whole cells",
  "data": [
    {"compound": "CC(=O)O[C@H]1C(=O)[C@@]2(C)[C@H]([C@H](OC(=O)c3ccccc3)[C@]3(O)C[C@H](OC(=O)[C@H](O)[C@@H](NC(=O)c4ccccc4)c4ccccc4)C(C)=C1C3(C)C)[C@]1(OC(C)=O)CO[C@@H]1C[C@@H]2O", "note": "[[3H]-paclitaxel]", "values": [
      {"measurement": "[3H]-paclitaxel efflux, HEK293/ABCC10 vs HEK293/pcDNA3.1 cells", "result": "due to active efflux of the [^3H]-paclitaxel via ABCC10"}
    ]}
  ]
}
